Data set [1] concerns THTR2 (SLC19A3). As to conditions: thiamine transport by THTR2; cited from earlier work.
The test system of data set [2] is THTR1 (SLC19A2). As to conditions: thiamine transport by THTR1; cited from earlier work.
Data set [3] has as its system fibroblasts (ATCC-CRL-2106). Nature of the data set: MTT test (cell metabolic activity). The note with it: for IC50: Homo sapiens, Fibroblast, fibroblasts, 50% reduction in cell metabolism rate, MTT test. It is filed as cell-based, human. As to the method: (§1) We investigated the cytotoxicity and effects of oxythiamine and 2′-methylthiamine on fibroblast (ATCC-CRL-2106) and HeLa (the human cervical cancer cell line; CCL-2; ATCC, Manassas, VA, USA) cell growth. Fibroblasts were at passage 5 and HeLa cells were at passage 15. Cells were cultured under the 5% CO2 and 95% humidity in Medium199 (M4530; Sigma-Aldrich, St. Louis, MO, USA) with 10% fetal bovine serum (F7524; Sigma-Aldrich), 50 U/mL penicillin, and 50 µg/mL streptomycin (P0781; Sigma-Aldrich) at 37 °C. The media was changed every 2 days. Cells were seeded at the density of 1 × 10^5 cells/well in 12-well plates one day prior to the addition of the test compounds. […] The toxicity of oxythiamine and 2′-methylthiamine was determined by means of colorimetric detection using the MTT test. The cells were incubated for 0.5 h in 0.5 mL of PBS with 50 μL of MTT (5 mg/mL). The medium was then removed from the wells, and formazan crystals were dissolved in 0.5 mL of dimethyl sulfoxide (DMSO) with 0.01 mL of Sorensen’s buffer. Absorbance was measured by means of the Lambda E plate reader (MWG Biotech AG, Ebensburg, Germany) at a wavelength of 570 nm. The results were expressed as a percentage of the controls. […] The experiments were conducted in six independent replicates for the purpose of statistical evaluation.
For orientation: Tetrazolium dyes change colour on reduction, which living cells bring about.

Data set [4] relates to HeLa cells. Put plainly: MTT test (cell metabolic activity). Type of data set: cell-based, human. The note with it: for IC50: HeLa cells, 50% reduction in cell metabolism rate, MTT test; for IC50 / SI (selectivity index): mean ± SD; for SI (selectivity index): ratio of IC50 (MTT) fibroblasts versus HeLa cells. The protocol:
as §1

Data set [5] has as its system fibroblasts (ATCC-CRL-2106). Put plainly: Cell counting / growth curves in in vitro culture. Type of data set: cell-based, human. As to conditions: for fibroblast cell number / growth in comparison to the controls: 6–1500 µM; for GI50: Homo sapiens, Fibroblast, fibroblasts, concentration causing 50% cell growth inhibition, from cell growth graphs.
The subject of data set [6] is HeLa cells. Put plainly: Cell counting / growth curves in in vitro culture. Type of data set: cell-based, human. The note with it: for GI50: HeLa cells, concentration causing 50% cell growth inhibition, from cell growth graphs, mean ± SD; for growth of HeLa cells in culture: microscopic observation / growth curves; for decrease in HeLa cell number compared to the control: 47 µM; for number of HeLa cells, % of the control: 1500 µM (maximum concentration).

The test system of data set [7] is primary human gingival fibroblasts. More on the design: method as in PMID 35409800. As to conditions: 100 µM; cited from earlier work.
In data set [8] the target is yeast transketolase. More on the design: method as in PMID 13719876. The note with it: cited from earlier work.
Data set [9] concerns human skin fibroblasts. On the set-up: method as in PMID 25626895. As to conditions: 30 µM to 1000 µM; cited from earlier work.
In data set [10] the target is rat liver transketolase. More on the design: method as in PMID 3730445. The note with it: cited from earlier work.
Data set [11] deals with OCT1. As to conditions: OCT1-related transport of drugs to cancer cells; cited from earlier work.

`Cc1ncc(C[n+]2csc(CCO)c2C)c(N)n1` [thiamine]: the values for the Km in [1] and in [2] were 0.00027 µM and 2.5 µM, respectively. Further, the IC50 in [3] and in [4] (Homo sapiens) was > 1500 µM each time. Also, the “metabolic activity of fibroblasts (MTT)” value in data set [3] (concentrations above 47 µM) is on record as “slightly increased”. In addition, the “fibroblast cell number / growth in comparison to the controls” value (“fibroblast cell number / growth” for short) in [5] is “did not observe any differences”. The GI50 was > 1500 µM in data set [5] and > 1500 µM in data set [6] (Homo sapiens, HeLa). Further, in data set [6], the “growth of HeLa cells in culture” value is given as “did not observe any differences”.

Take `Cc1ncc(C[n+]2csc(CCO)c2C)c(O)n1` [oxythiamine]: the IC50 in [3] is > 1500 µM; in data set [4] (Homo sapiens) it was 51 µM; in data set [8], ~0.03 µM; in [10], 0.2 µM. For the same molecule, the activity at 47 µM in data set [4] (Homo sapiens, HeLa, 47 µM, read-out: metabolic activity of HeLa cells (MTT), % of control) is 50%. Besides, in [4], the “SI (selectivity index)” value amounted to 153. Besides, the “reduction in cell viability” value in data set [7] is listed as “about 10%”. In addition, the “fibroblast cell number / growth” value in [5] is “did not find any significant differences”. The 50% growth inhibitory concentration (GI50) in data set [5] is > 1500 µM; in data set [6] it was 36 µM; in [6] (Homo sapiens, HeLa), 39 µM. Further, the “decrease in HeLa cell number compared to the control” value in data set [6] is “higher than five-fold decrease”. Moreover, the “number of HeLa cells, % of the control” value in data set [6] was found to be 2%. In addition, the “growth of HeLa cells in culture” value in data set [6] is reported as “inhibit the growth”. Moreover, in [9], the cell survival entry is listed as “not affecting cell survival”.

As for `C/C(=C(\CCOP(=O)(O)O)SC(=O)c1ccccc1)N(C=O)Cc1cnc(C)[nH]c1=O` [benfooxythiamine], in data set [7], the “reduction in cell viability” value is “about 10%”.

In the case of `Cc1ncc(C[n+]2c(C)sc(CCO)c2C)c(N)n1` [2′-methylthiamine, 2-[3-[(4-Amino-2-Methylpyrimidin-5-yl)methyl]-2,4-dimethyl-1,3-thiazol-3-ium-5-yl]ethanol], the melting point lay in the range of 211 to 214 °C. The IC50 in [3] is > 1500 µM. The “decrease of metabolic activity of HeLa cells (MTT) concerning the control” value in data set [4] (750 µM) stood at 30%. In data set [4] (Homo sapiens), this molecule returned an IC50 of 112 µM. Besides, the “SI (selectivity index)” value in data set [4] was determined as 180. In addition, in [5], the “fibroblast cell number / growth” value is recorded as “did not find any significant differences” and the GI50 is > 1500 µM. For the same molecule, in data set [6], the “decrease in HeLa cell number compared to the control” value is given as “decrease in the cell number by only about a half”; the “number of HeLa cells, % of the control” value is listed as ~25%; the GI50 was found to be 107 µM; the “growth of HeLa cells in culture” value is “inhibit the growth”. Growth in data set [6] (Homo sapiens, HeLa) was halved (GI50) at 83 µM.

On to `COc1cccc2c1C(=O)c1c(O)c3c(c(O)c1C2=O)C[C@@](O)(C(=O)CO)C[C@@H]3O[C@H]1C[C@H](N)[C@H](O)[C@H](C)O1` [doxorubicin], for which, in [11], the Km was 4.6 µM.

For orientation: Km means the substrate concentration at which the rate is half of its maximum. The term IC50 denotes the concentration that gives 50% inhibition. Usually GI50 stands for the concentration that inhibits growth by half. Read a low GI50 as greater sensitivity of the cells. What is called melting point is the temperature of the solid-liquid transition.

Source of the values: article PMC11050282, “In Vitro and In Silico Studies on Cytotoxic Properties of Oxythiamine and 2′-Methylthiamine” (International Journal of Molecular Sciences, 2024).
